Experimental data published in PMC9007901 (European journal of medicinal chemistry, 2022).
Blank lines part the entries; values can stand above or below the compound they belong to.

What was measured:
[1] = target: T1, drHDAC10 (Danio rerio, UniProt F1QCV2); assay: drHDAC10 enzymatic in vitro assay; format: biochemical
T1 sequence (F1QCV2 1-675): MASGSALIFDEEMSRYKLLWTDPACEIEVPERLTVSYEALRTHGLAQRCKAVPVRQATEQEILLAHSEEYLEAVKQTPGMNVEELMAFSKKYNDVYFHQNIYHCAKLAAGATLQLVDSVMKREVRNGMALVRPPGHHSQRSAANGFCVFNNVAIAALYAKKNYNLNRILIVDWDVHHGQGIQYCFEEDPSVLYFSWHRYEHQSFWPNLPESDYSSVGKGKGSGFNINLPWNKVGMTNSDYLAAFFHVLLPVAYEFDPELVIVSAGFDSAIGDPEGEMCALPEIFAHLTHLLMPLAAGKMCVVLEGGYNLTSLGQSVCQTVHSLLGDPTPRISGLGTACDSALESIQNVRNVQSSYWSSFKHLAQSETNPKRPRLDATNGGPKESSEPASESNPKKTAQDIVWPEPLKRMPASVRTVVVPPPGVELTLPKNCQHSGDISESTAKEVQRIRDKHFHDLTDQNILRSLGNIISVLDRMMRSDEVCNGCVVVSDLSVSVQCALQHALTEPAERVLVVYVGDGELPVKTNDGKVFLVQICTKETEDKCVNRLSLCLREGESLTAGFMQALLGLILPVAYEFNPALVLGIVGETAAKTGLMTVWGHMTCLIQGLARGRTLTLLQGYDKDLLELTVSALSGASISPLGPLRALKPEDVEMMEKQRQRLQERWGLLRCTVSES

[2] = target: T2, hHDAC8 (Homo sapiens, UniProt Q9BY41); assay: HDAC8 activity assay; format: biochemical
T2 sequence (Q9BY41 1-377): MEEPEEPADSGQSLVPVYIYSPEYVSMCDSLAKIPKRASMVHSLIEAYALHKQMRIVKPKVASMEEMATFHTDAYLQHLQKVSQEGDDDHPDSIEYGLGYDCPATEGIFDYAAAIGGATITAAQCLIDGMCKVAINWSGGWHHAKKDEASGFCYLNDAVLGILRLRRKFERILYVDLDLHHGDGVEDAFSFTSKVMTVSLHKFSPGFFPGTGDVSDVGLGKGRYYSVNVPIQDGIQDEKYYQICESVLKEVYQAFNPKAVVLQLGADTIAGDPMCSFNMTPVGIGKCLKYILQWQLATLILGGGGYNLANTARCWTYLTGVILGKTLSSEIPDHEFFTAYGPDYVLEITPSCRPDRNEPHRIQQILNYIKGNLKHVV

[3] = target: hHDAC1 (Homo sapiens, UniProt Q13547); assay: recombinant HDAC1 homogenous fluorescence assay
[4] = target: T3, hHDAC6 (Homo sapiens, UniProt Q9UBN7); assay: recombinant HDAC6 homogenous fluorescence assay
T3 sequence (Q9UBN7 1-1215): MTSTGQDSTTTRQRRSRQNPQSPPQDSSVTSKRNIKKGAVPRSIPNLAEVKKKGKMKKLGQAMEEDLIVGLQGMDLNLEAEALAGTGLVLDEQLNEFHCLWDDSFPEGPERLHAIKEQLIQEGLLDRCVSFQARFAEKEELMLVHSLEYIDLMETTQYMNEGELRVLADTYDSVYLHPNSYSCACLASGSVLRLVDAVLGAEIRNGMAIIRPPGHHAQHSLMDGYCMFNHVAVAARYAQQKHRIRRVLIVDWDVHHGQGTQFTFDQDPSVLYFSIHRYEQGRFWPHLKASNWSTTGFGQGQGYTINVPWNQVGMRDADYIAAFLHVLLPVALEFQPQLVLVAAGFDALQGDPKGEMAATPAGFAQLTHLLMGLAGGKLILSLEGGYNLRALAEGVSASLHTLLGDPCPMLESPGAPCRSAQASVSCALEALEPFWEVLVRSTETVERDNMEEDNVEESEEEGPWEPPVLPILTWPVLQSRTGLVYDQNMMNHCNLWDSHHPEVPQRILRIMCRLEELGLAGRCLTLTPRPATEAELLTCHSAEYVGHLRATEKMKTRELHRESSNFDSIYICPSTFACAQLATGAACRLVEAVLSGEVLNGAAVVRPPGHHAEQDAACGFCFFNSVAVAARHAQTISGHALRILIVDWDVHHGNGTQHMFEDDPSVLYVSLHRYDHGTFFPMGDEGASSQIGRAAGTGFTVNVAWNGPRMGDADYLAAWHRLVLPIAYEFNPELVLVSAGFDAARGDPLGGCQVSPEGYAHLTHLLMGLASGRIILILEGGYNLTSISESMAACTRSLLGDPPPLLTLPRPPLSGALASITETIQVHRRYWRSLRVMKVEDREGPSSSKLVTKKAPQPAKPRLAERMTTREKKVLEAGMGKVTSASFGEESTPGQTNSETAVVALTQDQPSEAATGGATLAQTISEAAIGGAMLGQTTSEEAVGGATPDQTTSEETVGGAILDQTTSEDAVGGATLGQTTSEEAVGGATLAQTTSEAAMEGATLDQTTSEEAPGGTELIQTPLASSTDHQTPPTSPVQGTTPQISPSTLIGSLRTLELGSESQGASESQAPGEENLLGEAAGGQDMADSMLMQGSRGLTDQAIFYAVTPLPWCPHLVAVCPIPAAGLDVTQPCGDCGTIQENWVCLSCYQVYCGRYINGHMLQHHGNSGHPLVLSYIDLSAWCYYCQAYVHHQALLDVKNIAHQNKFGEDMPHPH

[5] = system: HDAC10 and GAPDH levels in MV4–11 cells; assay: Immunoblot for HDAC10 and GAPDH levels; format: cell-based; conditions: 24 h
[6] = system: acetylated tubulin-α in MV4–11 cells; assay: Immunoblot for acetylated tubulin-α; format: cell-based; conditions: 15 μM, 24 h, did not reach significance
[7] = system: acetylated histone H3 in MV4–11 cells; assay: Immunoblot for acetylated histone H3; format: cell-based; conditions: 24 h
[8] = system: MV4–11 cells; assay: Cyto-ID detection of modulation of autophagy; format: cell-based; conditions: 2–15 μM, 24 h, with 10 μM chloroquine
[9] = system: MV4–11 cells; assay: Annexin-V-FITC / PI flow cytometry; format: cell-based; conditions: 2–15 μM, 24 h
[10] = system: SK-N-BE(2)-C neuroblastoma cells; assay: LysoTracker assay; format: cell-based, Human; conditions: SK-N-BE(2)-C cells, 24 h

Chain of hHDAC1 (Q13547 whole entry): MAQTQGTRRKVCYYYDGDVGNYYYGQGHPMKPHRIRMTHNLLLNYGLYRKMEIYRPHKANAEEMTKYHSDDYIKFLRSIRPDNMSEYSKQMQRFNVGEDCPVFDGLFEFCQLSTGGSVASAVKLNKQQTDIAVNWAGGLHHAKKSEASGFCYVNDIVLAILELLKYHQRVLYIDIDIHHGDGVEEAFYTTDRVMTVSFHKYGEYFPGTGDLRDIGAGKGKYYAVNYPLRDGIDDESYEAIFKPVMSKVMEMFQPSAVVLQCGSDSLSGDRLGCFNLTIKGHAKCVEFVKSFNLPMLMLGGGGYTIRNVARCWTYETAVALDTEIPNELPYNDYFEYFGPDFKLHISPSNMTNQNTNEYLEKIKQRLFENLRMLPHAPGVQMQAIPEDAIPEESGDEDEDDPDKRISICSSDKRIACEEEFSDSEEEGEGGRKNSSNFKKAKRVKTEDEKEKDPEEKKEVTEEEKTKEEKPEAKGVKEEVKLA

- drHDAC10 inhibition (in words) [1]: Potent drHDAC10 inhibition
Structure (SMILES): O=C(/C=C/C1CCN(Cc2csc3ccccc23)CC1)NO [13a, (E)-3-{1-[benzothiophen-3-ylmethyl]piperidin-4-yl} acrylhydroxamic acid]

- selectivity index (SI), hHDAC8 over drHDAC10 [2]: 94
Structure (SMILES): O=C(NO)c1ccc(CNCc2ccccc2)cc1 [4a, 4-[(benzylamino)methyl]-benzhydroxamic acid]

- drHDAC10 inhibition (in words) [1]: only weak HDAC10 inhibition
Structure (SMILES): O=C(NO)c1ccc(CN2CCCCC2)cc1 [6a, 4-(piperidin-1-ylmethyl)benzhydroxamic acid]

- selectivity index (SI), hHDAC1 over drHDAC10 [3]: 417
Structure (SMILES): O=C(NO)c1ccc(CNCc2ccsc2)cc1 [4c, 4-{[(thiophen-3-ylmethyl)amino]methyl}benzhydroxamic acid]

- selectivity index (SI), hHDAC8 over drHDAC10 [2]: 30
- selectivity index (SI), hHDAC1 over drHDAC10 [3]: 85
Structure (SMILES): O=C(NO)c1ccc(CNCc2cccs2)cc1 [4b, 4-{[(thiophen-2-ylmethyl)amino]methyl}benzhydroxamic acid]

- selectivity index (SI), hHDAC6 over drHDAC10 [4]: 9
- IC50 [2]: 2400 ± 210 nM
Structure (SMILES): CN1CCN(Cc2ccc(C(=O)NO)cc2)CC1 [6b, 4-[(N-methylpiperazin-1-yl)methyl]benzhydroxamic acid]

- selectivity index (SI), hHDAC6 over drHDAC10 [4]: 395
- IC50 [2]: 250 ± 50 nM
- selectivity index (SI), hHDAC8 over drHDAC10 [2]: 23
- selectivity index (SI), hHDAC1 over drHDAC10 [3]: 1454
Structure (SMILES): O=C(/C=C/C1CCN(CCc2ccccc2)CC1)NO [10a, (E)-3-(1-phenethylpiperidin-4-yl)acrylhydroxamic acid]

Structure (SMILES): Cn1cc(CN2CCC(/C=C/C(=O)NO)CC2)c2ccccc21 [13b, (E)-3-{1-[(1-methylindol-3-yl)methyl]piperidin-4-yl} acrylhydroxamic acid]
- GAPDH levels [5]: no change of GAPDH levels
- HDAC10 protein levels [5]: slightly increased levels of HDAC10
- tubulin acetylation compared to non-treated cells [6]: 36–80 fold
- accumulation of acetylated histone H3 ([7]; 2–15 μM): did not induce a significant accumulation of acetylated histone H3
- accumulation of cyto-ID positive vesicles [8]: significantly induced the accumulation of cyto-ID positive vesicles
- apoptosis (annexin-V-FITC / PI) [9]: did not trigger apoptosis
- drHDAC10 inhibition (in words) [1]: Potent drHDAC10 inhibition
- expansion and acidification of the lysosomal compartment (LysoTracker DND-99) [10]: induced the expansion and acidification of the lysosomal compartment

Structure (SMILES): Nc1ccccc1NC(=O)c1ccc(CNC(=O)OCc2cccnc2)cc1 [Entinostat (MS-275), entinostat, reference compound]
- accumulation of acetylated histone H3 ([7]; 5 μM, positive control): induced a highly significant accumulation of acetylated histone H3

Structure (SMILES): O=C(/C=C/C1CCN(CCc2c[nH]c3ccccc23)CC1)NO [10b, (E)-3-{1-[2-(1H-indol-3-yl)ethyl]piperidin-4-yl}acrylhydroxamic acid]
- IC50 [2]: 420 ± 55 nM
- drHDAC10 inhibition (in words) [1]: Potent drHDAC10 inhibition

- IC50 [2]: 2500 ± 260 nM
Structure (SMILES): O=C(/C=C/C1CCN(Cc2cccc(Cl)c2)CC1)NO [10d, (E)-3-[1-(3-chlorobenzyl)piperidin-4-yl]acrylhydroxamic acid]

Structure (SMILES): O=C(/C=C/C1CCN(Cc2cccc3ccccc23)CC1)NO [10c, (E)-3-[1-(naphthalen-1-ylmethyl)piperidin-4-yl]acrylhydroxamic acid]
- GAPDH levels [5]: no change of GAPDH levels
- HDAC10 protein levels [5]: slightly increased levels of HDAC10
- tubulin acetylation compared to non-treated cells [6]: 36–80 fold
- accumulation of acetylated histone H3 ([7]; 2–15 μM): did not induce a significant accumulation of acetylated histone H3
- accumulation of cyto-ID positive vesicles [8]: significantly induced the accumulation of cyto-ID positive vesicles
- apoptosis (annexin-V-FITC / PI) [9]: did not trigger apoptosis
- IC50 [2]: 470 ± 70 nM
- drHDAC10 inhibition (in words) [1]: Potent drHDAC10 inhibition
- expansion and acidification of the lysosomal compartment (LysoTracker DND-99) [10]: induced the expansion and acidification of the lysosomal compartment
